Reference: patent publication US20220071932A1, “Compositions and Methods Against Stress-Induced Affective Disorders and Their Associated Symptoms” (The Trustees of Columbia University in the City of New York, priority 2019, published 2022)

Tested on: 129S6/SvEv mice
Test: Forced swim test (FST); immobility time
Format: in vivo
Conditions: for p, Fisher's PLSD Saline vs. drug, FST Day 2 Immobility Time (sec): drug 1 week before stress; for p, Fisher's PLSD Saline vs. drug, FST Day 2 Immobility Time Min 1 (s) / p, Fisher's PLSD Saline vs. drug, FST Day 2 Immobility Time Min 2 (s) / p, Fisher's PLSD Saline vs. drug, FST Day 2 Immobility Time Min 3 (s) / p, Fisher's PLSD Saline vs. drug, FST Day 2 Immobility Time Min 4 (s) / p, Fisher's PLSD Saline vs. drug, FST Day 2 Immobility Time Min 5 (s) / p, Fisher's PLSD Saline vs. drug, FST Day 2 Immobility Time Min 6 (s) / p, Fisher's PLSD Saline vs. drug, FST Day 2 Immobility Time (s): drug 5 minutes after stress; for p, Fisher's PLSD Saline vs. drug, FST Day 2 Immobility Time Min 1 (s) / p, Fisher's PLSD Saline vs. drug, FST Day 2 Immobility Time Min 2 (s) / p, Fisher's PLSD Saline vs. drug, FST Day 2 Immobility Time Min 3 (s) / p, Fisher's PLSD Saline vs. drug, FST Day 2 Immobility Time Min 4 (s) / p, Fisher's PLSD Saline vs. drug, FST Day 2 Immobility Time Min 5 (s) / p, Fisher's PLSD Saline vs. drug, FST Day 2 Immobility Time Min 6 (s): FIG. 2F; for p, Fisher's PLSD Saline vs. drug, FST Day 2 Immobility Time (s): FIG. 2G
Experimental: The FST was administered as previously described (47). Briefly, mice were placed into clear plastic buckets 20 cm in diameter and 23 cm deep filled ⅔ of the way with 22° C. water. Mice were videotaped from the side for 6 min and were exposed to the swim test on 2 consecutive days Immobility time was scored by an experimenter blind to the experimental groups.

[1] = (R,S)-ketamine (30 mg/kg) vs. FENM (20 mg/kg), FIG. 8H
[2] = Fisher's LSD, Baseline cohort, FENM 20 mg/kg, FIG. 6D

In the case of `NC12CC3CC(C1)CC(CCF)(C3)C2` [FENM, 1-amino-3-fluoroethyl-adamantane], the “p, Fisher's PLSD Saline vs. drug, FST Day 2 Immobility Time (sec)” value (“p, Fisher's PLSD Saline vs. drug … (sec)” below) (10 mg/kg, after ANOVA, FIG. 1G) is reported as 0.0307, the “p, Fisher's PLSD Saline vs. drug … (sec)” value (10 mg/kg, after RMANOVA, FIG. 1F) is reported as 0.0085 and the “p, Fisher's PLSD Saline vs. drug, FST Day 2 Immobility Time Min 1 (s)” value (10 mg/kg) is reported as 0.3105. For the same molecule, the “p, Fisher's PLSD Saline vs. drug, FST Day 2 Immobility Time Min 2 (s)” value (10 mg/kg) was 0.2275, the “p, Fisher's PLSD Saline vs. drug, FST Day 2 Immobility Time Min 3 (s)” value (10 mg/kg) was 0.0949 and the “p, Fisher's PLSD Saline vs. drug, FST Day 2 Immobility Time Min 4 (s)” value (10 mg/kg) was 0.1329. For the same molecule, the “p, Fisher's PLSD Saline vs. drug, FST Day 2 Immobility Time Min 5 (s)” value (10 mg/kg) was 0.4763, the “p, Fisher's PLSD Saline vs. drug, FST Day 2 Immobility Time Min 6 (s)” value (10 mg/kg) was 0.4453 and the “p, Fisher's PLSD Saline vs. drug, FST Day 2 Immobility Time (s)” value (10 mg/kg, after ANOVA) was 0.0204. The “p, Fisher's PLSD Saline vs. drug … (sec)” value (20 mg/kg, after ANOVA, FIG. 1G) was less than 0.0001, the “p, Fisher's PLSD Saline vs. drug … (sec)” value (20 mg/kg, after RMANOVA, FIG. 1F) was less than 0.0001 and the “p, Fisher's PLSD Saline vs. drug … (sec)” value (30 mg/kg, after ANOVA, FIG. 1G) was 0.0005. For the same molecule, the “p, Fisher's PLSD Saline vs. drug … (sec)” value (30 mg/kg, after RMANOVA, FIG. 1F) was 0.0003, the “p, Fisher's PLSD Saline vs. drug, FST Day 2 Immobility Time Min 1 (s)” value (30 mg/kg) was 0.9988 and the “p, Fisher's PLSD Saline vs. drug, FST Day 2 Immobility Time Min 2 (s)” value (30 mg/kg) was less than 0.0001. For the same molecule, the “p, Fisher's PLSD Saline vs. drug, FST Day 2 Immobility Time Min 3 (s)” value (30 mg/kg) was 0.2804, the “p, Fisher's PLSD Saline vs. drug, FST Day 2 Immobility Time Min 4 (s)” value (30 mg/kg) was 0.4890 and the “p, Fisher's PLSD Saline vs. drug, FST Day 2 Immobility Time Min 5 (s)” value (30 mg/kg) was 0.8673. The “p, Fisher's PLSD Saline vs. drug, FST Day 2 Immobility Time Min 6 (s)” value (30 mg/kg) was 0.6591, the “p, Fisher's PLSD Saline vs. drug, FST Day 2 Immobility Time (s)” value (30 mg/kg, after ANOVA) was 0.0210 and the “immobility time, day 2 of the FST” value (5 minutes after CFC, re-exposure 1 day after training, (R,S)-ketamine 30 mg/kg, FENM 20 mg/kg, vs saline) was “significantly reduced immobility time”. For the same molecule, the “Forced Swim Test Day 1, Immobility Time Min 1 (sec), p (Fisher's LSD)” value [1] was 0.2548, the “Forced Swim Test Day 1, Immobility Time Min 2 (sec), p (Fisher's LSD)” value [1] was 0.5009 and the “Forced Swim Test Day 1, Immobility Time Min 3 (sec), p (Fisher's LSD)” value [1] was 0.4155. The “Forced Swim Test Day 1, Immobility Time Min 4 (sec), p (Fisher's LSD)” value [1] was 0.7067, the “Forced Swim Test Day 1, Immobility Time Min 5 (sec), p (Fisher's LSD)” value [1] was 0.3041 and the “Forced Swim Test Day 1, Immobility Time Min 6 (sec), p (Fisher's LSD)” value [1] was 0.8903. The “Forced Swim Test Day 2, Immobility Time (sec), p (Fisher's LSD)” value ((R,S)-ketamine (30 mg/kg) vs. FENM (20 mg/kg), after ANOVA, FIG. 8K) was 0.0713, the “Forced Swim Test Day 2, Immobility Time (sec), p (Fisher's LSD)” value ((R,S)-ketamine (30 mg/kg) vs. FENM (20 mg/kg), after RMANOVA, FIG. 8J) was 0.0712 and the “Behavior: Depressive-like” value (Antidepressant (5 min after stress), dose 10 mg/kg) was “↓”. The “Behavior: Depressive-like” value (Antidepressant (5 min after stress), dose 20 mg/kg) was “↓”, the “Behavior: Depressive-like” value (Antidepressant (5 min after stress), dose 30 mg/kg) was “↓” and the “Behavior: Depressive-like” value (Antidepressant (5 min after stress; extinction), dose 20 mg/kg) was “↓”. The “p, Immobility Time Min 1 (sec), FST Day 2, Saline vs. FENM” value [2] was 0.3330 and the “p, Immobility Time Min 2 (sec), FST Day 2, Saline vs. FENM” value [2] was 0.4156.
